Results as given in patent EP4470536A1, “COMPOUND FOR USE IN TREATING FIBRODYSPLASIA OSSIFICANS PROGRESSIVA (FOP)” (Queen's University At Kingston, priority 2023, dated 2024).

Key:
[1] = test system: ectopic bone formation; assay: Surgical mouse model of heterotopic ossification (rhBMP2-soaked collagen disk), micro-CT; assay type: in vivo, CD-1 mouse; conditions: for Mean bone volume (mm^3) / percent change in HO volume from vehicle mean (%): oral gavage, 13 days, Day 14
Description: Heterotopic ossification (HO) driven by Bone Morphogenetic Protein (BMP) signaling has been used as a surrogate model for testing the effectiveness of drugs for treating Fibrodysplasia Ossificans Progressiva (FOP) (see, for example, Shimono K., et al. (2011). Nat Med 17, 454-460.). Collagen disks of 1mm in diameter were punched from a thin collagen foam matrix (Avitene™ Ultrafoam™ Collagen Hemostat product #1050050 lot #WBDP0038, from BD, Franklin Lakes, NJ, USA). Disks were impregnated with 1µg total of recombinant human BMP-2 (GenScript, Piscataway, NJ, USA, catalog #Z02913, lot #P50031712) on the day of surgery (5µl of 200ng/µL BMP-2, reconstituted in 20mM acetic acid solution). The rhBMP2-soaked collagen disk was surgically implanted into a small pocket made in the left gastrocnemius muscle of a 6-8 week-old male CD-1 mouse. Beginning on the day following surgery, mice were administered varying doses of compound 1 by oral gavage once daily (QD) or twice daily (every 12h; BID) for 13 days. Doses administered were: vehicle (Corn oil, QD (5M) and BID (3M) dosing or 3% DMSO in Corn oil (2M)), compound 1 18 mg/kg BID, 18 mg/kg QD, 6 mg/kg BID, 4.5 mg/kg BID, and 2 mg/kg BID (6M per group). Palovarotene high and low doses were used as comparators (1.76 mg/kg (4M) and 0.88 mg/kg QD (6M)). The palovarotene high and low doses were selected based on a study for palovarotene (Inubushi, T., et al. (2018). "Palovarotene Inhibits Osteochondroma Formation in a Mouse Model of Multiple Hereditary Exostoses." J Bone Miner Res 33(4): 658-666.), using oral treatment of mice. The inventors also verified the dose selection based on pharmacokinetic (PK) data generated in-house for palovarotene IP (intraperitoneal) and PO (oral) treatment by using the doses for IP treatment from Lees-Shepard, J. B., et al. (2018).
At the study endpoint (Day 14: 16-30 hours after final compound treatment) left hindlimbs were removed and submitted to micro-CT (micro-computed tomography) imaging. Using this preclinical surgical model, the amount of resulting ectopic bone formation after 14 days was visualized for each of the treatment groups (Figure 6). The highly enhancing regions seen within the gastrocnemius muscle corresponded to the amount of ectopic bone formation generated at the site of collagen disk implantation, following 14 days of vehicle or drug treatment.
The hindlimbs obtained in Example 6 above were submitted to micro-CT imaging. CT images were acquired using a VECTor^4CT pre-clinical scanner (MILabs B.V., Utrecht, Netherlands) equipped with a cone beam X-ray CT system. Scans were carried out with an acceleration voltage of 50 kVp and an X-ray tube current of 430 µA in accurate focus mode to obtain 3600 projections over a 360° scan. With a 40 ms exposure time per step, the total scan procedure took about 5 minutes with an estimated radiation dose of 3077 mGy. CT images were consequently processed using MILabs reconstruction software implementing a voxel size of 20 µm and a Hann projection filter of 25 µm to generate 3-dimensional CT images. For quantification, CT images were converted to DICOM® files using PMOD 3.9 software (PMOD Technologies Ltd., Zurich, Switzerland) for rendering using RadiAnt DICOM Viewer 4.2 software (Medixant, Poznań, Poland). The region-of-interest for all hindlimbs, reconstructed from DICOM files, was defined by outlining sites of ectopic ossification. Analysis of total ectopic bone volume was conducted via automated processes using the AnalyzePro software with the Bone Microarchitecture Analysis (BMA) add-on (AnalyzeDirect, Overland Park, Kansas). This software generates bone volume measurements from the defined area, as described by Bouxsein et al (2010). Journal of Bone and Mineral Research, 25(7), 1468-1486. Using this preclinical surgical model, the ability of compound 1 to inhibit HO (percentage from vehicle), as compared to palovarotene, was assessed and is shown in Figure 7 and in Table 1 below.

[2] = Mapping a therapeutic window (ED50 versus MTD); assay type: in vivo
Text: For both palovarotene and compound 1 efficacy and toxicity were correlated to the pharmacokinetic parameters AUC (area under the curve), Cmax (maximum concentration detected following compound administration), and duration above EC50/IC50.This illustrated that efficacy was best predicted by duration above the EC50/IC50 (effective concentration for 50% response (in the case of palovarotene), or for 50% inhibition (in the case of compound 1)), whereas toxicity was best predicted by Cmax. […] For palovarotene, efficacy data from Example 7 and toxicity data from Example 8 above were compiled with mined data from the following publications: • Lindborg et al (2018). "Cartilage-derived retinoic acid-sensitive protein (CD-RAP): A stage-specific biomarker of heterotopic endochondral ossification (HEO) in fibrodysplasia ossificans progressiva (FOP)." Bone 109: 153-157. • Chakkalakal, S. A., et al. (2016). "Palovarotene Inhibits Heterotopic Ossification and Maintains Limb Mobility and Growth in Mice With the Human ACVR1(R206H) Fibrodysplasia Ossificans Progressiva (FOP) Mutation." J Bone Miner Res 31(9): 1666-1675. • Inubushi, T., et al. (2018). "Palovarotene Inhibits Osteochondroma Formation in a Mouse Model of Multiple Hereditary Exostoses." J Bone Miner Res 33(4): 658-666. • Lees-Shepard, J. B., et al. (2018). […] "Potent inhibition of heterotopic ossification by nuclear retinoic acid receptor-gamma agonists." Nat Med 17(4): 454-460.

CC(C)(C)c1cccc(-c2cc3cc(/C=C/C(=O)O)ccc3[nH]2)c1 [Compound 1, (E)-3-(2-(3-(tert-butyl)phenyl)-1H-indol-5-yl)acrylic acid]
Mean bone volume (mm^3) ([1]; 2mg/kg BID): 0.920 mm^3
percent change in HO volume from vehicle mean (%) ([1]; 2mg/kg BID): -52.5%
Mean bone volume (mm^3) ([1]; 4.5mg/kg BID): 1.205 mm^3
percent change in HO volume from vehicle mean (%) ([1]; 4.5mg/kg BID): -37.8%
Mean bone volume (mm^3) ([1]; 6mg/kg BID): 0.212 mm^3
percent change in HO volume from vehicle mean (%) ([1]; 6mg/kg BID): -89.1%
Mean bone volume (mm^3) ([1]; 18mg/kg BID): 0.035 mm^3
percent change in HO volume from vehicle mean (%) ([1]; 18mg/kg BID): -98.2%
Mean bone volume (mm^3) ([1]; 18mg/kg QD): 0.436 mm^3
percent change in HO volume from vehicle mean (%) ([1]; 18mg/kg QD): -77.5%
ectopic bone formation ([1]; 2 to 18 mg/kg, versus vehicle, 14 days): dose-dependent decrease in ectopic bone formation
ED50 ([2]; Mus musculus, BID, effective dose for 50% reduction in ectopic bone): 4 mg/kg
MTD at 4 weeks ([2]; both sexes, FVB, mouse, in vivo): 10 mg/kg
